According to US20240209061A1, “FUSION PROTEINS AND USES THEREOF” (Pfizer Inc., priority 2020, published 2024):
Entries after “also recorded” stand apart in the source; their conditions may differ.

What was measured:
recombinant soluble CD28 = biological target: T1, recombinant soluble CD28 (Homo sapiens, UniProt P10747); assay: ELISA binding to recombinant soluble CD28; settings: standard ELISA, FIG. 2A
T1 construct: Recombinant soluble CD28 and CTLA-4 proteins (from Creative BioMart, Product #CD28-3910H, CTLA-4-2232H) were immobilized; purchased Creative BioMart CD28-3910H
Protocol: Binding affinity of purified CD80-Fc fusion proteins (WT and variant) to recombinant soluble CD28 and CTLA-4 proteins was determined by standard ELISA. Recombinant soluble CD28 and CTLA-4 proteins (from Creative BioMart, Product #CD28-3910H, CTLA-4-2232H) were immobilized on 96 well microtiter plate (Thermo Scientific, Product #436110) in bicarbonate buffer at 4° C. overnight. After washing with 1×PBS containing 0.05% Tween 20 (wash buffer) plates were incubated with blocking buffer, 5% BSA in PBS, for 1 hour at room temperature. A serial dilution of CD80-Fc fusion proteins and human IgG1 isotype control antibody was prepared in blocking buffer, added into the plate and incubated at room temperature for 1 hour. Following washing 3× with wash buffer, 1:4000 dilution of HRP conjugated secondary anti-human IgG1 antibody (R&D Systems, MAB110-100) was added into the plate and incubated at room temperature for 1 hour. Plates were washed 3× with wash buffer and a 100 μl of LumiGlo (SeraCare, Product #5430-0040) reagent added into each well, incubated for 5 minutes at room temperature before reading luminescence signal in EnSight™ plate reader (PerkinElmer).

[1] = tested on: MC38 murine colorectal carcinoma cells; assay: MC38 murine colorectal carcinoma model, IV and SC dosing; assay type: in vivo, mouse; settings: for CD8^+ T cell infiltrates (% CD45): MC38, n=4
Protocol: MC38 murine colorectal carcinoma cells (5×10^5) were subcutaneously implanted in the hind flank of female […] mice. When tumors reach ˜50 mm^3 (day 6 after implantation), mice were randomized. PBS vehicle control or variant CD80-Fc fusion proteins were dosed intravenously (IV) or subcutaneously (SC) with doses ranging from 0.01-3.0 mg/kg on Days 0 and 3. Tumor volume was determined by caliper measurements obtained in 2 dimensions and calculated as width^2×length/2. Error bars are depicted as ±SEM.
(§1) Cytotoxic CD8^+ T cells are responsible for killing cancer cells and the measurement of CD8^+ T cells that have infiltrated tumors commonly correlates with efficacy for immune-oncology therapies. For all in vivo studies, tumors were collected ˜1 week after the first dose and dissociated by mincing, followed by incubation in an enzymatic digestion cocktail and homogenization. The resulting cell suspension was filtered and washed, and single cells were stained with antibodies to CD45, CD8, and a viability dye to detect tumor-infiltrating lymphocytes (TILs) by flow cytometry. Data were acquired on a BD LSRFortessa flow cytometer or a Cytek Aurora spectral flow cytometer. Table 31 and FIG. 18 show the amount of tumor-infiltrating CD8+ T cells expressed as a percentage of total immune cells (CD45+). Each value is the average of n=4 mice per group. Treatment with all variant CD80-Fc fusion proteins led to increase in CD8+ TILs in various tumor models.

[2] = tested on: EMT6 murine breast cancer cells; assay: EMT6 murine breast cancer model; assay type: in vivo, mouse; settings: for Day 17 tumor volume: Days 0 and 3; for % tumor growth inhibition: Day 17; for # IFNγ-producing spots, Spleen / # IFNγ-producing spots, TDLN: average of n = 4 mice; for CD8^+ T cell infiltrates (% CD45): EMT6, n=4
Protocol: EMT6 murine breast cancer cells (3×10^5) were orthotopically implanted in the mammary fat pad of female Balb/c mice. When tumors reached ˜90 mm^3 (day 5 after implantation), mice were randomized. PBS vehicle control or variant CD80-Fc fusion proteins were dosed intravenously at 0.01, 0.1, 1.0 and 3.0 mg/kg on Days 0 and 3. Tumor volume was determined by caliper measurements obtained in 2 dimensions and calculated as width^2×length/2. Error bars are depicted as ±SEM.
Tumor-reactive T cells in the spleen and tumor-draining lymph nodes (TDLNs) were measured by IFNγ ELIspot in mice treated with CD80-K89D-D90K-T28V-T57V-Fc.
as §1

human PD-L1 = human PD-L1 (Homo sapiens, UniProt Q9NZQ7); assay: SPR (Biacore) binding to immobilized human PD-L1; settings: Human PD-L1 immobilized at 60 μg/ml and 75 μg/ml
Protocol: (physiologic temperature) with a collection rate of 10 Hz. Purified soluble ligands were covalently coupled onto a CM5 sensor chip using an Amine coupling Kit (GE Healthcare, Product #BR100050) following the manufacturer's recommendations. […] The flow was again returned to running buffer and dissociation was monitored for 300 sec. Binding affinities and rate constants were determined by fitting the resulting double referenced (Myszka, D. G. J. Mol. Recognit. 12, 279-284 (1999)) sensorgram data to a 1:1 Langmuir model with Biacore Insight Evaluation software version 2.0 (GE Healthcare).
Binding of variant CD80-Fc to PD-L1 was not detected. FIG. 9A-9D show the SPR sensorgrams depicting binding of varying concentrations of CD80-WT-Fc and CD80-K89D-D90K-T28V-T57V-Fc to two different concentrations of immobilized human PD-L1 (60 μg/ml and 75 μg/ml).

Chain of human PD-L1 (Q9NZQ7 19-238 limits assumed): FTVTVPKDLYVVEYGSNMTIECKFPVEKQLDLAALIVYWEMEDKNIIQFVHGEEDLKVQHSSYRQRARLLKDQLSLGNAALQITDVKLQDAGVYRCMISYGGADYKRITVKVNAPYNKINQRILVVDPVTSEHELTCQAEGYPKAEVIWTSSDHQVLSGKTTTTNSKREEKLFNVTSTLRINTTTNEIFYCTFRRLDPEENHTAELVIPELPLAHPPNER

For “CD80-D90Q-Fc: variant CD80 ECD (D90Q) fused to human IgG1 Fc”, the “binding affinity to CD28 compared to WT CD80-Fc” value (recombinant soluble CD28) was “increased binding affinity to CD28”.

In the case of “CD80-K89D-D90K-T28V-T57V-Fc: non-cysteine stabilized variant CD80-Fc fusion protein (K89D, D90K, T28V, T57V)”, the “% tumor growth inhibition” value ([1]; Day 15, Intravenous 0.01 mg/kg) is reported as 17.9%, the “% tumor growth inhibition” value ([1]; Day 15, Intravenous 0.1 mg/kg) is reported as 25.2% and the “% tumor growth inhibition” value ([1]; Day 15, Intravenous 1 mg/kg) is reported as 59.9%. The “% tumor growth inhibition” value ([1]; Day 15, Intravenous 3 mg/kg) was 83.8%, the “% tumor growth inhibition” value ([1]; Day 15, Subcutaneous 0.01 mg/kg) was 11.1% and the “% tumor growth inhibition” value ([1]; Day 15, Subcutaneous 0.1 mg/kg) was 27.1%. The “% tumor growth inhibition” value ([1]; Day 15, Subcutaneous 1 mg/kg) was 73.7%, the “% tumor growth inhibition” value ([1]; Day 15, Subcutaneous 3 mg/kg) was 84.4% and the “Day 15 tumor volume” value ([1]; Intravenous 0.01 mg/kg) was 1042.1 mm^3. For the same substance, the “Day 15 tumor volume” value ([1]; Intravenous 0.1 mg/kg) was 954.8 mm^3, the “Day 15 tumor volume” value ([1]; Intravenous 1 mg/kg) was 535.3 mm^3 and the “Day 15 tumor volume” value ([1]; Intravenous 3 mg/kg) was 248.1 mm^3. The “CD8^+ T cell infiltrates (% CD45)” value ([1]; 0.01 mg/kg) was 6.26 % CD45, the “CD8^+ T cell infiltrates (% CD45)” value ([1]; 0.1 mg/kg) was 10.81 % CD45 and the “CD8^+ T cell infiltrates (% CD45)” value ([1]; 1 mg/kg) was 23.58 % CD45. The “Day 15 tumor volume” value ([1]; Subcutaneous 0.01 mg/kg) was 1125.4 mm^3, the “Day 15 tumor volume” value ([1]; Subcutaneous 0.1 mg/kg) was 931.7 mm^3 and the “Day 15 tumor volume” value ([1]; Subcutaneous 1 mg/kg) was 369.7 mm^3. For the same substance, the “Day 15 tumor volume” value ([1]; Subcutaneous 3 mg/kg) was 240.9 mm^3, the “Day 17 tumor volume” value ([2]; 0.01 mg/kg IV) was 1552.0 mm^3 and the “% tumor growth inhibition” value ([2]; 0.01 mg/kg) was 0.4%. For the same substance, the “# IFNγ-producing spots, Spleen” value ([2]; 0.01 mg/kg) was 123.1, the “# IFNγ-producing spots, TDLN” value ([2]; 0.01 mg/kg) was 51.9 and the “Day 17 tumor volume” value ([2]; 0.1 mg/kg IV) was 981.2 mm^3. For the same substance, the “% tumor growth inhibition” value ([2]; 0.1 mg/kg) was 39.0%, the “# IFNγ-producing spots, Spleen” value ([2]; 0.1 mg/kg) was 117.9 and the “# IFNγ-producing spots, TDLN” value ([2]; 0.1 mg/kg) was 132.3. For the same substance, the “Day 17 tumor volume” value ([2]; 1 mg/kg IV) was 818.8 mm^3, the “% tumor growth inhibition” value ([2]; 1 mg/kg) was 50.1% and the “# IFNγ-producing spots, Spleen” value ([2]; 1 mg/kg) was 336.4. The “# IFNγ-producing spots, TDLN” value ([2]; 1 mg/kg) was 475.2, the “Day 17 tumor volume” value ([2]; 3 mg/kg IV) was 133.4 mm^3 and the “% tumor growth inhibition” value ([2]; 3 mg/kg) was 96.6%. The “# IFNγ-producing spots, Spleen” value ([2]; 3 mg/kg) was 427.7, the “# IFNγ-producing spots, TDLN” value ([2]; 3 mg/kg) was 540.9 and the “CD8^+ T cell infiltrates (% CD45)” value ([2]; 0.01 mg/kg) was 3.98 % CD45. For the same substance, the “CD8^+ T cell infiltrates (% CD45)” value ([2]; 0.1 mg/kg) was 9.59 % CD45, the “CD8^+ T cell infiltrates (% CD45)” value ([2]; 1 mg/kg) was 15.91 % CD45 and the “CD8^+ T cell infiltrates (% CD45)” value ([2]; 3 mg/kg) was 8.19 % CD45. For the same substance, the “binding to PD-L1” value (human PD-L1) was “undetectable; also recorded: No binding”.

With “CD80-K89Q-D90Q-E23C-A26C-Fc: disulfide stabilized variant CD80-Fc fusion protein (K89Q, D90Q, E23C, A26C)” the “% tumor growth inhibition” value ([1]; Day 16, Intravenous 0.01 mg/kg) was 31.2%, the “% tumor growth inhibition” value ([1]; Day 16, Intravenous 0.1 mg/kg) was 37.7% and the “% tumor growth inhibition” value ([1]; Day 16, Intravenous 1 mg/kg) was 64.2%. The “% tumor growth inhibition” value ([1]; Day 16, Intravenous 3 mg/kg) was 93.0%, the “% tumor growth inhibition” value ([1]; Day 16, Subcutaneous 1.5 mg/kg) was 64.2% and the “% tumor growth inhibition” value ([1]; Day 16, Subcutaneous 3 mg/kg) was 83.7%. For the same substance, the “Day 16 tumor volume” value ([1]; Intravenous 0.01 mg/kg) was 905.1 mm^3, the “Day 16 tumor volume” value ([1]; Intravenous 0.1 mg/kg) was 824.7 mm^3 and the “Day 16 tumor volume” value ([1]; Intravenous 1 mg/kg) was 495.3 mm^3. For the same substance, the “Day 16 tumor volume” value ([1]; Intravenous 3 mg/kg) was 138.9 mm^3, the “CD8^+ T cell infiltrates (% CD45)” value ([1]; 0.01 mg/kg) was 9.8 % CD45 and the “CD8^+ T cell infiltrates (% CD45)” value ([1]; 0.1 mg/kg) was 24.5 % CD45. The “CD8^+ T cell infiltrates (% CD45)” value ([1]; 1 mg/kg) was 24.6 % CD45, the “CD8^+ T cell infiltrates (% CD45)” value ([1]; 3 mg/kg) was 41.3 % CD45 and the “Day 16 tumor volume” value ([1]; Subcutaneous 1.5 mg/kg) was 495.6 mm^3. The “Day 16 tumor volume” value ([1]; Subcutaneous 3 mg/kg) was 252.2 mm^3, the “Day 17 tumor volume” value ([2]; 0.01 mg/kg IV) was 1581.7 mm^3 and the “% tumor growth inhibition” value ([2]; 0.01 mg/kg) was −1.7%. For the same substance, the “Day 17 tumor volume” value ([2]; 0.1 mg/kg IV) was 912.2 mm^3, the “% tumor growth inhibition” value ([2]; 0.1 mg/kg) was 43.7% and the “Day 17 tumor volume” value ([2]; 1 mg/kg IV) was 357.2 mm^3. The “% tumor growth inhibition” value ([2]; 1 mg/kg) was 81.4%, the “Day 17 tumor volume” value ([2]; 3 mg/kg IV) was 457.5 mm^3 and the “% tumor growth inhibition” value ([2]; 3 mg/kg) was 74.6%.

With “CD80-K89Q-D90Q-Fc: variant CD80 ECD (K89Q, D90Q) fused to human IgG1 Fc” the “binding affinity to CD28 compared to WT CD80-Fc” value (recombinant soluble CD28) was “increased binding affinity to CD28”.

For “CD80-WT-Fc: wild-type human CD80 extracellular domain fused to human IgG1 Fc (C220S) [reference compound]”, the “binding to PD-L1” value (human PD-L1) was “detectable binding”.
